Assay [1] deals with T1, SMARCA2-HiBiT HeLa cells (protein which is expressed from the SMARCA2 gene) (Homo sapiens, UniProt P51531).
T1 construct: protein which is expressed from the SMARCA2 and SMARCA4 genes; host or cells: HeLa (SMARCA2-HiBiT engineered line)
In words: SMARCA2 degradation assay (HiBiT-fusion HeLa cell line, 24 h, luminescence). Format: cell-based. Put shortly: (§1)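 In this 24-hour cellular degradation readout, HiBiT-tagged HeLa lines received compound at up to typically 10 μM down to 300 pM in 10 points. After lysis with LgBiT and substrate, luminescence signals were used to build dose-response curves for DC50.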

The target of assay [2] is T2, SMARCA4-HiBiT HeLa cells (protein which is expressed from the SMARCA4 gene) (Homo sapiens, UniProt P51532).
T2 construct: protein which is expressed from the SMARCA2 and SMARCA4 genes; host or cells: HeLa (SMARCA4-HiBiT engineered line)
In words: SMARCA4 degradation assay (HiBiT-fusion HeLa cell line, 24 h, luminescence). The class given is cell-based. Put shortly: as §1

The structures appear in SMILES notation. A value given as a limit tells only on which side of the number the result lay.

T2 sequence (P51532 whole entry): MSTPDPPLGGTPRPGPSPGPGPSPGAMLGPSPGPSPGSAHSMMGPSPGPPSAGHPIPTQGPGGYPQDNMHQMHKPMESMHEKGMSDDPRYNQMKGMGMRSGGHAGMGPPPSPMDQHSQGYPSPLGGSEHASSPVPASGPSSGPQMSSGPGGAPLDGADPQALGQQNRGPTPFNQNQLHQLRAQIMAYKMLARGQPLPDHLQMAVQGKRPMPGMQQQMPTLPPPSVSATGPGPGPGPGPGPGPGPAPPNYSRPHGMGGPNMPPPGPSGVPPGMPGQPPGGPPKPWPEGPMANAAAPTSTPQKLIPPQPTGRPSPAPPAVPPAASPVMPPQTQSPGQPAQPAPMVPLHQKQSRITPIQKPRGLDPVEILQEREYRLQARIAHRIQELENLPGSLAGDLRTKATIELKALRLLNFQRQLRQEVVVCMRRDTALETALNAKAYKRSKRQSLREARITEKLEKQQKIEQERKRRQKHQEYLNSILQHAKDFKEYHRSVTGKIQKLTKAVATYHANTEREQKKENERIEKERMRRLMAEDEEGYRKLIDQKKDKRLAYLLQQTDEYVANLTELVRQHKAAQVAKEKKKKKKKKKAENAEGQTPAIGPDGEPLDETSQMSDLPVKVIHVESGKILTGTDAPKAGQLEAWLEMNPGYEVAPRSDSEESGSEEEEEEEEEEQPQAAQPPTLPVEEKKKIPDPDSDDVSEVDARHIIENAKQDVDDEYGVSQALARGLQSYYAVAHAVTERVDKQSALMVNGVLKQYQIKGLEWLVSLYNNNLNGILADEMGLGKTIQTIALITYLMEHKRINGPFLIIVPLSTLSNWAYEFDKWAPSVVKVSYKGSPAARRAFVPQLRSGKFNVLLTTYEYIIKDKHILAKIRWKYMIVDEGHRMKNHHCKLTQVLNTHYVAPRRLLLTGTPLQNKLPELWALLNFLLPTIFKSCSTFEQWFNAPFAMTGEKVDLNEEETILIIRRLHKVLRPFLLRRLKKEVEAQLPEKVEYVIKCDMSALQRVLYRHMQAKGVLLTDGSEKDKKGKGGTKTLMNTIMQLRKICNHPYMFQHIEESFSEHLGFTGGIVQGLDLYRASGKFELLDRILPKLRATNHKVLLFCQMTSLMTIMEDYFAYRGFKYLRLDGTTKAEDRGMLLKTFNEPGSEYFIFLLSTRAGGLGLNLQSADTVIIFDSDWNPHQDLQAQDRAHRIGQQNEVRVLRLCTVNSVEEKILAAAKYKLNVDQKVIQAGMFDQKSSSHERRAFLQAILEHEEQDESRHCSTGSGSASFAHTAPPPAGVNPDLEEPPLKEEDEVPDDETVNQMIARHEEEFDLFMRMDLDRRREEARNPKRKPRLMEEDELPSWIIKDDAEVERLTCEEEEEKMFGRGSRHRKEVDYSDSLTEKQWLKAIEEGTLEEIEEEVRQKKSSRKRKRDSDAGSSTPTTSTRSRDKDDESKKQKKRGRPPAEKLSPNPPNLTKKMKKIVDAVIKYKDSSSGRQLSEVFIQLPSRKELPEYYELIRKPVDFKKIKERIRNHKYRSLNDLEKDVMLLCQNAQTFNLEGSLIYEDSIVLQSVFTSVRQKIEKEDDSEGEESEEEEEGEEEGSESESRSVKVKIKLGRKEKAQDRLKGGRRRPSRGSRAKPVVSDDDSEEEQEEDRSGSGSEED
T1 sequence (P51531 whole entry): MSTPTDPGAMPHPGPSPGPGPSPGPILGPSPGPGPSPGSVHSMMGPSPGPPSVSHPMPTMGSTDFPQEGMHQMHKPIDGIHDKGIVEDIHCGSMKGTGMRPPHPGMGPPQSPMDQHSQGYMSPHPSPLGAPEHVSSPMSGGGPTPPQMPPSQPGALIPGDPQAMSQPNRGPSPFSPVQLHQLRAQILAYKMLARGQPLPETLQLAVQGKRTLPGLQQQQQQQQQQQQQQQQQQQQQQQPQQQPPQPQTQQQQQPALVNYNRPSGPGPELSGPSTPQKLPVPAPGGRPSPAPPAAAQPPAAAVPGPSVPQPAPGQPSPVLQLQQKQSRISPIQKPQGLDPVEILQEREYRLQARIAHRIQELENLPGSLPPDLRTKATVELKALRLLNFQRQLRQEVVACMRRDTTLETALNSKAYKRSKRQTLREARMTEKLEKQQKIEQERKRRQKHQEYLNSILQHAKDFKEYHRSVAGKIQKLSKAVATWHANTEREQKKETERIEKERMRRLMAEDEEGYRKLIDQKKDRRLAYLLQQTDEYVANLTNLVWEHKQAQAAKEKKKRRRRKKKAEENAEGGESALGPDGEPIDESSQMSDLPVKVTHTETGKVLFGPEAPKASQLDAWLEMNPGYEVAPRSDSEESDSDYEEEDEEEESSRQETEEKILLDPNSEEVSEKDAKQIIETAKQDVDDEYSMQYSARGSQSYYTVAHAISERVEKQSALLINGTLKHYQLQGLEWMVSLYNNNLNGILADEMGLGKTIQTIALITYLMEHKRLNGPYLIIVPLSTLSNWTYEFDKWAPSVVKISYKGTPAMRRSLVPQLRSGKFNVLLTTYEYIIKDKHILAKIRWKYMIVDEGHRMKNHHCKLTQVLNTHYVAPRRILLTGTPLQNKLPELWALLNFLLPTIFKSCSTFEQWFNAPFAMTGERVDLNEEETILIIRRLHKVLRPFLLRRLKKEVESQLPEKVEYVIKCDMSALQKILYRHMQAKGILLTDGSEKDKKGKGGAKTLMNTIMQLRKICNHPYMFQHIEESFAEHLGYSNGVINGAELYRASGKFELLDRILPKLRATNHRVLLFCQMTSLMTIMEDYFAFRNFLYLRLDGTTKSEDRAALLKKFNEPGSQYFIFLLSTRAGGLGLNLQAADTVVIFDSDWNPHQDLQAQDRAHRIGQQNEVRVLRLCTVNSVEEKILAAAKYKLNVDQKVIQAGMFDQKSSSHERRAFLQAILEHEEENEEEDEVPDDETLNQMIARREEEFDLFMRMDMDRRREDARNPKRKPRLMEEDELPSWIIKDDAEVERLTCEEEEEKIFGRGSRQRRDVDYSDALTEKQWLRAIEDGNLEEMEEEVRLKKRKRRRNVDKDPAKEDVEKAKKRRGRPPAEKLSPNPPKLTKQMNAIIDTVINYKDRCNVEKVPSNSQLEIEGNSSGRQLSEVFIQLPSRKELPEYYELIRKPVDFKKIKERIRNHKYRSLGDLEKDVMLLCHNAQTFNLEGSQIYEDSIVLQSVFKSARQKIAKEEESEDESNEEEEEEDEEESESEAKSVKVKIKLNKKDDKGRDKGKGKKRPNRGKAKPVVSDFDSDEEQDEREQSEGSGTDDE

Turning to `Nc1nnc(-c2ccccc2O)cc1N1CC2CCN(c3ccnc(C#CCNC(=O)c4cc5ncccn5n4)n3)C2C1` (stereo not drawn) [Compound P-36, N-(3-(4-(5-(3-amino-6-(2-hydroxyphenyl)pyridazin-4-yl)hexahydropyrrolo[3,4-b]pyrrol-1(2H)-yl)pyrimidin-2-yl)prop-2-yn-1-yl)pyrazolo[1,5-a]pyrimidine-2-carboxamide], the DC50 in assay [1] and in assay [2] was 0.05 to 0.5 µM each time. The “SMARCA2 % Degradation @ 1 μM” value in assay [1] (@ 1 μM) is given as “+++ (+++=>70%)”. For the same compound, the inhibition at 1 µM in assay [2] (@ 1 μM) was over 70%.
Take `Nc1nnc(-c2ccccc2O)cc1N1CCCN(c2ccnc(C#Cc3cnc4cnccn34)n2)CC1` [Compound P-135, 2-(6-amino-5-(4-(2-(imidazo[1,2-a]pyrazin-3-ylethynyl)pyrimidin-4-yl)-1,4-diazepan-1-yl)pyridazin-3-yl)phenol]: the DC50 in assay [1] and in assay [2] was 0.05 to 0.5 µM each time. Besides, in assay [1] (@ 1 μM), the “SMARCA2 % Degradation @ 1 μM” value was “++ (++=30-70%)”. In assay [2] (@ 1 μM), this compound came in with an inhibition at 1 µM of 30 to 70%.
With `CCc1cc(C(=O)NCC#Cc2nccc(N3CCN(c4cc(-c5ccccc5O)nnc4N)CC3)n2)nn1C` [Compound P-2, N-[3-(4-{4-[3-amino-6-(2-hydroxyphenyl)pyridazin-4-yl]piperazin-1-yl}pyrimidin-2-yl)prop-2-yn-1-yl]-5-ethyl-1-methyl-1H-pyrazole-3-carboxamide], the 50% degradation concentration (DC50) in assay [1] and in assay [2] was 0.05 to 0.5 µM throughout. For the same compound, the “SMARCA2 % Degradation @ 1 μM” value in assay [1] (@ 1 μM) was “++ (++=30-70%)”. The same compound yielded an inhibition at 1 µM in assay [2] (@ 1 μM) of 30 to 70%.
As for `CN(C)CC#Cc1cc(N2C[C@@H]3CN(c4cc(-c5ccccc5O)nnc4N)C[C@@H]3C2)ccn1` [Compound P-389, 0-{5-[(1R,5S)-7-{2-[3-(dimethylamino)-1-propynyl]-4-pyridyl}-3,7-diazabicyclo[3.3.0]oct-3-yl]-6-amino-3-pyridazinyl} phenol], the results for the half-maximal degradation concentration (DC50) in assay [1] and in assay [2] were 0.05 to 0.5 µM and under 0.05 µM, respectively. The “SMARCA2 % Degradation @ 1 μM” value in assay [1] (1 μM) was “++ (++=30-70%)”. Moreover, the inhibition at 1 µM in assay [2] (1 μM) lay in the range of 30 to 70%.
The like results for `C[C@@H]1CCN(c2cc(-c3ccccc3O)nnc2N)CCN1c1ccnc(C#CCN(C)C)c1` [Compound P-427, 0-{5-[(R)-4-{2-[3-(dimethylamino)-1-propynyl]-4-pyridyl}-5-methyl-1,4-diazepan-1-yl]-6-amino-3-pyridazinyl}phenol] were, in that order, under 0.05 µM, under 0.05 µM, “+++ (+++=>70%)” and 30 to 70%.
Regarding `C[C@@H]1CCN(c2cc(-c3ccccc3O)nnc2N)CCN1c1ccnc(C#CCNc2ccn(C)n2)n1` [Compound P-331, 0-{5-[(R)-5-methyl-4-{2-[3-(1-methyl-3-pyrazolylamino)-1-propynyl]-4-pyrimidinyl}-1,4-diazepan-1-yl]-6-amino-3-pyridazinyl}phenol], the 50% degradation concentration (DC50) in assay [1] and in assay [2] was 0.05 to 0.5 µM throughout. Also, the “SMARCA2 % Degradation @ 1 μM” value in assay [1] (@ 1 μM) is listed as “++ (++=30-70%)”. The compound further registered an inhibition at 1 µM in assay [2] (@ 1 μM) of under 30%.
For the compound `Cc1nn2ccn(CC#Cc3nccc(N4CCN(c5cnnc(-c6ccccc6O)c5)CC[C@H]4C)n3)c(=O)c2c1C` [Compound P-235, 5-[3-(4-{ (R)-4-[6-(o-hydroxyphenyl)-4-pyridaziny1]-7-methyl-1,4-diazepan-1-yl}-2-pyrimidinyl)-2-propynyl]-2,3-dimethyl-1,5,7a-triaza-4(5H)-indenone], the half-maximal degradation concentration (DC50) in assay [1] lay within 0.05 to 0.5 µM; in assay [2] it was 0.5 to 5 µM. Moreover, in assay [1] (@ 1 μM), the “SMARCA2 % Degradation @ 1 μM” value is “+ (+=<30%)”. Moreover, the inhibition at 1 µM in assay [2] (@ 1 μM) is under 30%.
For `Nc1nnc(-c2ccccc2O)cc1N1CCCN(c2ccnc(C#CCN3C[C@@H]4C[C@H]3CO4)n2)CC1` [Compound P-377, 0-(5-{4-[2-(3-{(1S,4S)-2-oxa-5-azabicyclo[2.2.1]hept-5-yl}-1-propynyl)-4-pyrimidinyl]-1,4-diazepan-1-y1}-6-amino-3-pyridazinyl)phenol], the half-maximal degradation concentration (DC50) fell in the range of 0.05 to 0.5 µM in assay [1] and 0.5 to 5 µM in assay [2]. In assay [1] (@ 1 μM), the “SMARCA2 % Degradation @ 1 μM” value is listed as “++ (++=30-70%)”. Further, the inhibition at 1 µM in assay [2] (@ 1 μM) fell in the range of 30 to 70%.
For the compound `COCC#Cc1cc(N2CCN(c3cc(-c4ccccc4O)nnc3N)CC[C@H]2C)ccn1` [Compound P-398, 0-(5-{(R)-4-[2-(3-methoxy-1-propynyl)-4-pyridyl]-5-methyl-1,4-diazepan-1-yl}-6-amino-3-pyridazinyl)phenol], the DC50 lay in the range of 0.05 to 0.5 µM in assay [1] and 0.5 to 5 µM in assay [2]. Further, the “SMARCA2 % Degradation @ 1 μM” value in assay [1] (1 μM) was “++ (++=30-70%)”. For the same compound, the inhibition at 1 µM in assay [2] (1 μM) lay within 30 to 70%.
On to `Cn1cc(C#Cc2nccc(N3CCCN(c4cc(-c5ccccc5O)nnc4N)CC3)n2)cn1` [Compound P-346, 0-[6-amino-5-(4-{2-[2-(1-methyl-4-pyrazolyl)ethynyl]-4-pyrimidinyl}-1,4-diazepan-1-yl)-3-pyridazinyl]phenol], for which the DC50 in assay [1] and in assay [2] was 0.5 to 5 µM throughout. Further, the “SMARCA2 % Degradation @ 1 μM” value in assay [1] (@ 1 μM) was “++ (++=30-70%)”. In addition, in assay [2] (@ 1 μM), the inhibition at 1 µM was under 30%.
`Nc1nnc(-c2ccccc2O)cc1N1CCN(c2ccnc(C#CCNC(=O)c3coc4ccccc34)n2)CC1` [Compound P-55, N-(3-(4-(4-(3-amino-6-(2-hydroxyphenyl)pyridazin-4-yl)piperazin-1-yl)pyrimidin-2-yl)prop-2-yn-1-yl)benzofuran-3-carboxamide]: the DC50 in assay [1] and in assay [2] was 0.05 to 0.5 µM throughout. The “SMARCA2 % Degradation @ 1 μM” value in assay [1] (@ 1 μM) is on record as “++ (++=30-70%)”. The inhibition at 1 µM in assay [2] (@ 1 μM) lay in the range of 30 to 70%.
As for `Nc1nnc(-c2ccccc2O)cc1N1CCCN(c2ccnc(C#CCN3C4CCC3CC(O)C4)n2)CC1` (stereo not drawn) [Compound P-338, 8-[3-(4-{4-[3-amino-6-(o-hydroxyphenyl)-4-pyridazinyl]-1,4-diazepan-1-yl}-2-pyrimidinyl)-2-propynyl]-8-azabicyclo[3.2.1]octan-3-ol], the DC50 in assay [1] and in assay [2] was 0.05 to 0.5 µM each time. Besides, the “SMARCA2 % Degradation @ 1 μM” value in assay [1] (@ 1 μM) is given as “++ (++=30-70%)”. The compound further gave an inhibition at 1 µM in assay [2] (@ 1 μM) of under 30%.
Regarding `C[C@@H]1CCN(c2cc(-c3ccccc3O)nnc2N)CCN1c1ccnc(C#CC23CCC(C2)N3)n1` (stereo partly drawn) [Compound P-196, o-{5-[(R)-4-(2-{2-(5-azabicyclo[2.1.1]hex-1-yl)ethynyl}-4-pyrimidinyl)-5-methyl-1,4-diazepan-1-yl]-6-amino-3-pyridazinyl}phenol], the 50% degradation concentration (DC50) in assay [1] and in assay [2] was 0.5 to 5 µM throughout. For the same compound, in assay [1] (@ 1 μM), the “SMARCA2 % Degradation @ 1 μM” value is “++ (++=30-70%)”. Also, in assay [2] (@ 1 μM), the inhibition at 1 µM was under 30%.
In the case of `C[C@H]1CCN(c2cc(-c3ccccc3O)nnc2N)CCN1c1ccnc(C#CCN(C)C)n1` [Compound P-250], the 50% degradation concentration (DC50) in assay [1] and in assay [2] was under 0.05 µM throughout. The “SMARCA2 % Degradation @ 1 μM” value in assay [1] (@ 1 μM) was “+++ (+++=>70%)”. Besides, the inhibition at 1 µM in assay [2] (@ 1 μM) is over 70%.
As to `CC(C)(C)OC(=O)N1CCC(F)(C#Cc2nccc(N3CCCN(c4cc(-c5ccccc5O)nnc4N)CC3)n2)CC1` [Compound P-349], the 50% degradation concentration (DC50) in assay [1] and in assay [2] was 0.05 to 0.5 µM in each case. Further, in assay [1] (@ 1 μM), the “SMARCA2 % Degradation @ 1 μM” value is recorded as “++ (++=30-70%)”. In assay [2] (@ 1 μM), this compound had an inhibition at 1 µM of 30 to 70%.

The record behind these values is patent US20260265238A1, “COMPOUNDS AND PHARMACEUTICAL COMPOSITIONS THAT DEGRADE SWI/SNF-RELATED MATRIX-ASSOCIATED ACTIN-DEPENDENT REGULATOR OF CHROMATIN SUBFAMILY A” (Plexium, Inc., priority 2023, published 2026).
